Measurements from patent publication EP1803452A1, “ESTER DERIVATIVE AND PHARMACEUTICAL USE THEREOF” (Japan Tobacco, Inc., priority 2004, dated 2006).

Legend:
[1] = Stability test in buffer (pH 7.4); type: physicochemical; details: phosphate buffer/acetonitrile 7:3, 100 mM potassium phosphate buffer (pH 7.4) and acetonitrile 7:3 (v/v), LC/MS; for remaining at 10 min: 10 minutes at 37°C, read-out: Buf. remaining rate (%/10min); for remaining at 1 h: 60 minutes at 37°C, read-out: Buf. remaining rate (%/60min)
Method in brief: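 Parent compound measured by LC/MS after 0, 10 or 60 min at 37°C in a 7:3 (v/v) mix of 100 mM potassium phosphate buffer and acetonitrile, with the reaction stopped by acetonitrile plus formic acid (final 0.1%). Percentage remaining is expressed relative to the zero-time amount.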

[2] = Metabolic stability test in plasma; type: in vitro ADME, human; details: LC/MS; for remaining at 10 min: unchanged form after 10 minutes at 37°C in human plasma, read-out: Remaining rate in human plasma (%/10min); for remaining at 1 h: unchanged form after 60 minutes at 37°C in human plasma, read-out: Remaining rate in human plasma (%/60min)
Method in brief: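 Remaining rate (%) versus zero time was derived from LC/MS measurement of parent compound after centrifugation. Plasma from human, mouse and hamster received DMSO-dissolved compound and was held at 37°C for 0, 10 or 60 minutes before acetonitrile containing formic acid (final 0.1%) stopped the reaction.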

[3] = Metabolic stability test in liver S9; type: in vitro ADME; details: pH 7.4, human liver S9 2 mg protein/mL, LC/MS; for remaining at 10 min: unchanged form after 10 minutes at 37°C, read-out: Remaining rate in human liver S9 (%/10min); for remaining at 1 h: unchanged form after 60 minutes at 37°C, read-out: Remaining rate in human liver S9 (%/60min)
Method in brief: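 Compound from DMSO solution was incubated at 37°C with human liver S9 (final 2 mg protein/mL) in 100 mM potassium phosphate pH 7.4 with an NADPH-regenerating system for 0, 10 and 60 minutes. Reactions were stopped with acetonitrile/0.1% formic acid. Unchanged compound was measured by LC/MS as remaining rate (%) relative to zero time.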

SMILES	remaining at 10 min [1] [%]	remaining at 1 h [1] [%]	remaining at 10 min [2] [%]	remaining at 1 h [2] [%]	remaining at 10 min [3] [%]	remaining at 1 h [3] [%]
COc1cc(C(=O)OC(C)C)cc(Cl)c1OC(=O)CCCc1ccc(NC(=O)c2ccc(C)nc2-c2ccc(C(F)(F)F)cc2)c(C(=O)N(C)C)c1 [Compound 1-37, 3-chloro-4-[4-(3-dimethylcarbamoyl-4-{[6-methyl-2-(4-trifluoromethylphenyl)pyridine-3-carbonyl]amino}phenyl)butyryloxy]-5-methoxybenzoic acid isopropyl ester]	99	99	0	0	37	11
CN(C)C(=O)c1cc(CCCC(=O)Oc2ccc(C(=O)OCC(=O)OCc3ccccc3)cc2)ccc1NC(=O)c1ccccc1-c1ccc(C(F)(F)F)cc1 [Compound 1-78, 4-[4-(3-dimethylcarbamoyl-4-{(4'-trifluoromethylbiphenyl-2-carbonyl)amino}phenyl)butyryloxy]benzoic acid benzyloxycarbonylmethyl ester]	97	97	51	2	10	2
COC(=O)c1ccc(-c2nc(C)ccc2C(=O)Nc2ccc(CCCC(=O)Oc3c(C)cc(C(=O)OC)cc3C(=O)OC)cc2C(=O)N(C)C)cc1 [Compound 4-2, 4-[4-(3-dimethylcarbamoyl-4-{[2-(4-methoxycarbonylphenyl)-6-methylpyridine-3-carbonyl]amino}phenyl)butyryloxy]-5-methylisophthalic acid dimethyl ester]	98	97	34	0	2	0
Cc1noc(-c2ccc(OC(=O)CCCc3ccc(NC(=O)c4ccccc4-c4ccc(C(F)(F)F)cc4)c(C(=O)N(C)C)c3)cc2)n1 [Compound 1-2, 4-{3-dimethylcarbamoyl-4-[(4'-trifluoromethylbiphenyl-2-carbonyl)amino]phenyl}butyric acid 4-(3-methyl-[1,2,4]oxadiazol-5-yl)phenyl ester]	98	97	20	0	0	0
CN(C)C(=O)c1cc(CCCC(=O)Oc2ccc(-c3nnn(CC(=O)OCc4ccccc4)n3)cc2)ccc1NC(=O)c1ccccc1-c1ccc(C(F)(F)F)cc1 [Compound 1-104, 4-(3-dimethylcarbamoyl-4-{(4'-trifluoromethylbiphenyl-2-carbonyl)amino}phenyl)butyric acid 4-(2-benzyloxycarbonylmethyl-2H-tetrazol-5-yl)phenyl ester]	101	96	78	17	14	5
CN(C)C(=O)c1cc(CCCC(=O)Oc2ccc(C(=O)O)cc2)ccc1NC(=O)c1ccccc1-c1ccc(C(F)(F)F)cc1 [Compound 1-25, 4-(4-{3-dimethylcarbamoyl-4-[(4'-trifluoromethylbiphenyl-2-carbonyl)amino]phenyl}butyryloxy) benzoic acid]	99	101	89	59	4	0
CCc1cc(C(=O)OC)ccc1OC(=O)CCCc1ccc(NC(=O)c2ccccc2-c2ccc(C(F)(F)F)cc2)c(C(=O)N(C)C)c1 [Compound 1-67, 4-[4-(3-dimethylcarbamoyl-4-{(4'-trifluoromethylbiphenyl-2-carbonyl)amino}phenyl)butyryloxy]-3-ethylbenzoic acid methyl ester]	103	105	77	17	3	0
COc1cc(C(=O)OCCNC(C)=O)cc(Cl)c1OC(=O)CCCc1ccc(NC(=O)c2ccc(C)nc2-c2ccc(C(F)(F)F)cc2)c(C(=O)N(C)C)c1 [Compound 1-114, 3-chloro-4-[4-(3-dimethylcarbamoyl-4-{[6-methyl-2-(4-trifluoromethylphenyl)pyridine-3-carbonyl]amino}phenyl)butyryloxy]-5-methoxybenzoic acid 2-acetylaminoethyl ester]	104	108	2	0	14	3
COC(=O)c1ccc(OC(=O)CCCc2ccc(NC(=O)c3ccccc3-c3ccc(C(F)(F)F)cn3)c(C(=O)N(C)C)c2)cc1 [Compound 1-19, 4-(4-{3-dimethylcarbamoyl-4-[2-(5-trifluoromethylpyridin-2-yl)benzoylamino]phenyl}butyryloxy)benzoic acid methyl ester]	107	100	0	0	0	0
COC(=O)c1ccc(OC(=O)CCCc2ccc(NC(=O)c3ccccc3-c3ccc(C(F)(F)F)cc3)c(C(=O)N(C)C)c2)c(F)c1 [Compound 1-10, 4-(4-{3-dimethylcarbamoyl-4-[(4'-trifluoromethylbiphenyl-2-carbonyl)amino]phenyl}butyryloxy)-3-fluoro benzoic acid methyl ester]	101	98	0	0	0	0
CN(C)C(=O)c1cc(CCCC(=O)Oc2ccc(C#N)cc2)ccc1NC(=O)c1ccccc1-c1ccc(C(F)(F)F)cc1 [Compound 1-23, 4-{3-dimethylcarbamoyl-4-[(4'-trifluoromethylbiphenyl-2-carbonyl)amino]phenyl}butyric acid 4-cyanophenyl ester]	99	99	21	0	0	0
COC(=O)c1ccc(OC(=O)CCCc2ccc(NC(=O)c3ccccc3-c3ccc(C(=O)OC)cc3)c(C(=O)N(C)C)c2)cc1 [Compound 4-3, 2'-{2-dimethylcarbamoyl-4-[3-(4-methoxycarbonylphenoxycarbonyl)propyl]phenylcarbamoyl}biphenyl-4-carboxylic acid methyl ester]	101	102	0	0	1	0
CN(C)C(=O)COC(=O)c1ccc(OC(=O)CCCc2ccc(NC(=O)c3ccccc3-c3ccc(C(F)(F)F)cc3)c(C(=O)N(C)C)c2)cc1 [Compound 1-85, 4-[4-(3-dimethylcarbamoyl-4-{(4'-trifluoromethylbiphenyl-2-carbonyl)amino}phenyl)butyryloxy]benzoic acid dimethylcarbamoylmethyl ester]	103	102	61	4	0	0
CC(OC(=O)c1ccc(OC(=O)CCCc2ccc(NC(=O)c3ccccc3-c3ccc(C(F)(F)F)cc3)c(C(=O)N(C)C)c2)cc1)c1ccccc1 (stereo not drawn) [Compound 1-106, 4-[4-(3-dimethylcarbamoyl-4-{(4'-trifluoromethylbiphenyl-2-carbonyl)amino}phenyl)butyryloxy]benzoic acid 1-phenylethyl ester]	98	99	49	0	13	0
CCC(=O)c1ccc(OC(=O)CCCc2ccc(NC(=O)c3ccccc3-c3ccc(C(F)(F)F)cc3)c(C(=O)N(C)C)c2)cc1 [Compound 1-88, 4-(3-dimethylcarbamoyl-4-{(4'-trifluoromethylbiphenyl-2-carbonyl)amino}phenyl)butyric acid 4-propionylphenyl ester]	102	101	39	0	0	0
COc1cc(C(=O)OCC(=O)N(C)C)cc(Cl)c1OC(=O)CCCc1ccc(NC(=O)c2ccc(C)nc2-c2ccc(C(F)(F)F)cc2)c(C(=O)N(C)C)c1 [Compound 1-113, 3-chloro-4-[4-(3-dimethylcarbamoyl-4-{[6-methyl-2-(4-trifluoromethylphenyl)pyridine-3-carbonyl]amino}phenyl)butyryloxy]-5-methoxybenzoic acid dimethylcarbamoylmethyl ester]	103	104	1	0	8	2
